SMILES strings stand for the structures. *1 amine or outer side, *2 acyl side, *3 side chain or, on linkers, in order; H or OH if unused. Where a SMILES comes first, the peptide text is derived from it. Side-chain parts run from the residue outwards. [ ]: non-standard residue; d: D form. The star is where a group is joined. C18 diacid = O=C(O)CCCCCCCCCCCCCCCCC(=O)*; γGlu = O=C(O)[C@H](CCC(=O)[*:2])N[*:1]; AEEA = NCCOCCOCC(=O)O; Sar = CNCC(=O)O Where only a bound is given, the exact number is not on record here.

A short description of data set [1]: Rate of model dipeptide cleavage from hexapeptide in PBS (HPLC, LC-MS). The format is physicochemical. As to conditions: buffer. As for the experimental part: The solution was incubated at 37° C.
The flow rate was 1 ml/min.

Data set [2] in a line: Pharmacokinetics of A8 PTH prodrugs in monkeys, single subcutaneous dose (Example 8). To be noted: single SC dose 25 nmol/kg, FIGS. 7A, 7B. The format is in vivo, cynomolgus monkeys. As for the experimental part:
The pharmacokinetic profile of PTH analogues following a single subcutaneous dose to cynomolgus monkeys and an evaluation of the pharmacodynamic response of serum calcium and phosphorus was investigated. A total of six monkey were used in this test 2 males and 4 females ranging in age from 2-4 years old at beginning of the study and having a weight of at least 2.5 kg.
Animals were assigned to groups as noted in the Table 6 below. Animals were dosed by subcutaneous injection. Dose administration was staggered. The Group 1
male was dosed once, and the remaining two Group 1 females and all Group 2 animals were dosed once, approximately four days later. First day of dosing was designated as Study Day (SD) 1 for each animal. The dose volume was 0.3 mL/kg. Individual dose volumes were calculated based on the animals' most recently recorded body weight. […]
Pharmacokinetic mean concentration-time data was analyzed using non-compartmental methods (Phoenix® WinNonlin® Version 7.0 or higher) based on the route of administration. The following parameters were calculated whenever possible and as data allows: Cmax, Tmax, and AUC. […]
Results from these pharmacokinetic (PK) studies are provided in FIGS. 7A and 7B wherein the concentration of the administered prodrug form and its activate drug form (produced after in vivo non-enzymatic cleavage of the dipeptide prodrug element) were measured over time.

With `CC[C@H](C)[C@H](NC(=O)[C@H](CCC(=O)O)NC(=O)[C@H](CO)NC(=O)[C@@H](NC(=O)[C@H](CO)NC(=O)CN(C)C(=O)[C@H](N)CCCCNC(=O)CC[C@H](NC(=O)COCCOCCNC(=O)COCCOCCNC(=O)CC[C@H](NC(=O)CCCCCCCCCCCCCCCCC(=O)O)C(=O)O)C(=O)O)C(C)C)C(=O)N[C@@H](CCC(N)=O)C(=O)N[C@@H](CC(C)C)C(=O)N[C@@H](C)C(=O)N[C@@H](Cc1c[nH]cn1)C(=O)N[C@@H](CC(N)=O)C(=O)N[C@@H](CC(C)C)C(=O)NCC(=O)N[C@@H](CCCCN)C(=O)N[C@@H](Cc1c[nH]cn1)C(=O)N[C@@H](CC(C)C)C(=O)N[C@@H](CC(N)=O)C(=O)N[C@@H](CO)C(=O)N[C@@H](CCSC)C(=O)N[C@@H](CCC(=O)O)C(=O)N[C@@H](CCCNC(=N)N)C(=O)N[C@H](C(=O)N[C@@H](CCC(=O)O)C(=O)N[C@@H](Cc1c[nH]c2ccccc12)C(=O)N[C@@H](CC(C)C)C(=O)N[C@@H](CCCNC(=N)N)C(=O)N[C@@H](CCCCN)C(=O)N[C@@H](CCCCN)C(=O)N[C@@H](CC(C)C)C(=O)N[C@@H](CCC(N)=O)C(=O)N[C@@H](CC(=O)O)C(=O)N[C@H](C(=O)N[C@@H](Cc1c[nH]cn1)C(=O)N[C@@H](CCCCNC(=O)CC[C@H](NC(=O)COCCOCCNC(=O)COCCOCCNC(=O)CC[C@H](NC(=O)CCCCCCCCCCCCCCCCC(=O)O)C(=O)O)C(=O)O)C(=O)O)C(C)C)C(C)C` [SEQ ID NO: 95] (H-[dK]([γGlu-AEEA-AEEA-γGlu-C18 diacid])[Sar]SVSEIQLAHNLGKHLNSMERVEWLRKKLQDVHK([γGlu-AEEA-AEEA-γGlu-C18 diacid])-OH), the half-life (as a rule, how long it takes for the measured level to halve) at 1 mg/ml in data set [1] was more than 20.8 days. In addition, the “plasma concentration versus singly fatty acylated prodrug SEQ ID: 94” value in data set [2] is “higher concentration that is sustained for a longer period”.

The values are drawn from patent publication US20260224716A1, “PTH ANALOGS FOR THE TREATMENT OF HYPOPARATHYROIDISM” (priority 2020, published 2026).
